# From paper PMC3114813 (Environmental Health Perspectives, 2011)
# “Also recorded” adds a separate entry of the source. Like-named read-outs stand apart in the source and are kept apart here.
# Key:
# [1] = test system: MDA-kb2 cells; details: for Cytotoxic EC20 (μM) MDA-kb2: EC20 = concentration that produces a 20% effect
# Protocol: (§1) MDA-kb2 cells are human breast cancer cells stably transfected with a firefly luciferase reporter gene that is driven by an androgen-response element–containing promoter ([Wilson et al. 2002]). Details of the modified assay were published previously ([Ermler et al. 2010]). Briefly, cells were seeded at a concentration of 1 × 10^5 cells/mL in phenol red–free Leibowitz-15 medium (Invitrogen Ltd., Paisley, UK) containing 10% (charcoal-stripped) fetal calf serum (Invitrogen Ltd.) in white luminometer plates and allowed to attach for 24 hr. Cells were then exposed to eight serial dilutions of selected pesticides with or without DHT (0.25 nM). After 24 hr, luciferase activity was determined with SteadyGlo assay reagent (Promega UK Ltd., Southampton, Hampshire, UK) and measured in a plate reader (FLUOstar Optima, BMG Labtech GmbH, Offenburg, Germany). […] All concentrations were tested in duplicate over two plates, and each pesticide was measured at least twice in separate experiments. For comparative purposes, luminescence was normalized to DHT alone at coexposure concentration (maximum response, 100%) and solvent-only (ethanol) controls (minimum response, 0%). […] Pesticides were initially tested over a concentration range of 0.64 nM–50 μM (5× dilutions) as a range-finding exercise. Subsequently, the concentration ranges were modified to reflect the potency and toxicity of each individual compound. […] Sixty percent of the pesticides were repeat tested using the same product but with new stock solutions and by a different experimenter.
# (§2) To analyze antiandrogenic action, raw luminescence readings were normalized on a plate-by-plate basis to the means of the positive DHT controls (n = 8) and the solvent controls (n = 8) ([Ermler et al. 2010]). […] Specifically, a variety of nonlinear regression models were fitted independently to the same data set, and the best-fitting model was selected using a statistical goodness-of-fit criterion. […] Data considered to be statistically significant at p < 0.05 were analyzed using the best-fit approach as described above. All statistical analysis was performed using SAS statistical software (SAS Institute Inc., Cary, NC, USA). From the best-fitting model, we derived inhibitory concentrations for antiandrogenicity and effect concentrations for cytotoxicity.
# [2] = test system: yeast; test: YAS, cytotoxicity (turbidity at 620 nm); type: cell-based; details: for Cytotoxic EC20 (μM) YAS: EC20 = concentration that produces a 20% effect, yeast turbidity
# Protocol: The methods for the YAS have been described previously ([Sohoni and Sumpter 1998]). Briefly, stimulation of the transfected AR causes a color change in the media, which is measured by absorbance at 540 nm (Labsystems Multiskan Multisoft, Vienna, VA, USA). Plates were also measured at 620 nm to measure cell growth (turbidity) to check for any cytotoxic effects that may have occurred. Pesticides were coincubated with DHT (6.4 nM). […] Incubation time was 53 hr at 28°C. […] Pesticide serial dilutions were tested in duplicate over two plates and were tested in two separate experiments.
# [3] = target: T1, androgen receptor (AR) (Homo sapiens, UniProt P10275, Q868H); type: cell-based
# T1 construct: MDA-kb2 cells are human breast cancer cells stably transfected with a firefly luciferase reporter gene; endogenous in cells; host or cells: MDA-kb2 (human breast cancer cells)
# T1 sequence (P10275 1-920 Q868H): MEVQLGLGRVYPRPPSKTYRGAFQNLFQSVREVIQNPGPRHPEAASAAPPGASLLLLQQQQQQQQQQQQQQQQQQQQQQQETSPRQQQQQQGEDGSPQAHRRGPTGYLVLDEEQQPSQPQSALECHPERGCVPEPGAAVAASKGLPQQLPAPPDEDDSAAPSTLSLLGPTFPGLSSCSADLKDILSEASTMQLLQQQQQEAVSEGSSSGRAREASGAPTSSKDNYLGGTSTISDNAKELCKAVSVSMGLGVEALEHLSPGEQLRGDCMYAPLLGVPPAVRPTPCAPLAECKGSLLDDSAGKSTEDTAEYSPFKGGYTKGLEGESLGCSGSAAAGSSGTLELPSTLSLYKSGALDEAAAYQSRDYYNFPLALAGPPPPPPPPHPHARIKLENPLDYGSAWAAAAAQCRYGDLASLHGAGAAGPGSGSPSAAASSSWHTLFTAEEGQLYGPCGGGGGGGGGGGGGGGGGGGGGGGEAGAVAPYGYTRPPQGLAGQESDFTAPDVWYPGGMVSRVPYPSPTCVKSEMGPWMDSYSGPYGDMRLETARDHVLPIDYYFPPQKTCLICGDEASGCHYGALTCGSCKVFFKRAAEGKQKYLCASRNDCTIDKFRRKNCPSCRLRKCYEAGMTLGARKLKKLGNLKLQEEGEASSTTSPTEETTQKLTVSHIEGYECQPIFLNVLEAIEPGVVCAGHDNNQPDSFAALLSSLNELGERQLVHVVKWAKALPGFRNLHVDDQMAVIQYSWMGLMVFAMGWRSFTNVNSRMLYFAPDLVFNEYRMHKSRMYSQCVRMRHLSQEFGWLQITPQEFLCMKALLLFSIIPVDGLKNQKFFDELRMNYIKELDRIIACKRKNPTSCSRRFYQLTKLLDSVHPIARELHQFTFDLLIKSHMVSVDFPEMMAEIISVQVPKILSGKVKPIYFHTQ
# Protocol: as §1, §2
# [4] = target: T1, androgen receptor (AR); test: cell-based; details: for IC20: MDA-kb2, read-out: Antiandrogen IC20 (μM) MDA-kb2
# Protocol: as §1, §2
# [5] = androgenic in the absence of DHT, Neg = no response was observed
# [6] = total exposure score / IC20 (MDA-kb2), recalculated using experimental data
compound,measurement,setting,value
"CC(C)C(=O)Nc1ccc([N+](=O)[O-])c(C(F)(F)F)c1 [flutamide, reference compound]",Cytotoxicity in the MDA-kb2 assay (in words),[1],overlap of toxic effects on the cells with antiandrogenic activity
C=CC1(C)OC(=O)N(c2cc(Cl)cc(Cl)c2)C1=O (stereo not shown) [Vinclozolin],Cytotoxic EC20 (μM) MDA-kb2,[1],> 50 µM
CC1(C)C(/C=C(\Cl)C(F)(F)F)C1C(=O)OC(C#N)c1cccc(Oc2ccccc2)c1 (stereo not shown) [λ-Cyhalothrin],Cytotoxic EC20 (μM) YAS,[2],> 200 µM
same,Cytotoxic EC20 (μM) MDA-kb2,[1],51.4 µM
O=S1OCC2C(CO1)C1(Cl)C(Cl)=C(Cl)C2(Cl)C1(Cl)Cl (stereo not shown) [Endosulfan],Androgen EC20 (μM) MDA-kb2,[3],Neg
same,Antiandrogenic activity in the MDA-kb2 assay (in words),[4],in vitro AR antagonists
same,ERR (environmental relevance ratio),[4],3.1
same,IC20,[4],6.05 µM
same,Cytotoxic EC20 (μM) MDA-kb2,[1],33.8 µM
OC(c1ccc(Cl)cc1)(c1ccc(Cl)cc1)C(Cl)(Cl)Cl [Dicofol],Cytotoxic EC20 (μM) MDA-kb2,[1],29.0 µM
O=C(NC(=O)c1c(F)cccc1F)Nc1ccc(OC(F)(F)C(F)OC(F)(F)F)c(Cl)c1 (stereo not shown) [Novaluron],Cytotoxic EC20 (μM) MDA-kb2,[1],> 50 µM
COC(=O)N(OC)c1ccccc1COc1ccn(-c2ccc(Cl)cc2)n1 [Pyraclostrobin],Cytotoxic EC20 (μM) MDA-kb2,[1],0.089 µM
CO/C=C(/C(=O)OC)c1ccccc1Oc1cc(Oc2ccccc2C#N)ncn1 [Azoxystrobin],Androgen EC20 (μM) MDA-kb2,[3]; [5],Neg
same,Antiandrogen IC20 (μM) MDA-kb2,[4],Neg
same,Cytotoxic EC20 (μM) MDA-kb2,[1],2.9 µM
CCOC(=O)OC1=C(c2cc(C)ccc2C)C(=O)N[C@]12CC[C@@H](OC)CC2 [Spirotetramat],Cytotoxic EC20 (μM) MDA-kb2,[1],> 50 µM
CC(C)OC(=O)C(O)(c1ccc(Br)cc1)c1ccc(Br)cc1 [Bromopropylate],Androgen EC20 (μM) MDA-kb2,[3]; [5],Neg
same,IC20,[4],0.54 µM
same,Antiandrogenic activity in the MDA-kb2 assay (in words),[4]; MDA-kb2 / 'our assay',in vitro AR antagonists
same,ERR (environmental relevance ratio),[4]; [6],24.1
same,Cytotoxic EC20 (μM) MDA-kb2,[1],27.2 µM
COP(=S)(OC)Oc1ccc([N+](=O)[O-])c(C)c1 [Fenitrothion],Cytotoxic EC20 (μM) MDA-kb2,[1],> 50 µM
CC1COC(Cn2cncn2)(c2ccc(Oc3ccc(Cl)cc3)cc2Cl)O1 (stereo not shown) [Difenoconazole],Cytotoxic EC20 (μM) YAS,[2],0.109 µM
same,Cytotoxicity in the YAS assay (in words),[2],cytotoxic
same,Cytotoxic EC20 (μM) MDA-kb2,[1],2.91 µM
C#CCOc1ccc(CCNC(=O)C(OCC#C)c2ccc(Cl)cc2)cc1OC (stereo not shown) [Mandipropamid],Androgen EC20 (μM) MDA-kb2,[3]; [5],Neg
same,Antiandrogen IC20 (μM) MDA-kb2,[4],Neg
same,Cytotoxic EC20 (μM) MDA-kb2,[1],8.92 µM
Cc1c(COC(=O)[C@@H]2[C@H](/C=C(\Cl)C(F)(F)F)C2(C)C)cccc1-c1ccccc1 (racemic) [Bifenthrin],Cytotoxic EC20 (μM) YAS,[2],> 200 µM
same,Cytotoxicity in the MDA-kb2 assay (in words),[1],cytotoxic
same,Cytotoxic EC20 (μM) MDA-kb2,[1],22.2 µM
CNC(=O)Oc1cc(C)c(SC)c(C)c1 [Methiocarb],Androgen EC20 (μM) MDA-kb2,[3]; [5],Neg
same,IC20,[4],6.82 µM
same,ERR (environmental relevance ratio),[4]; [6],2.5
same,Cytotoxic EC20 (μM) MDA-kb2,[1],> 46 µM
Fc1ccc(Oc2ccnc3cc(Cl)cc(Cl)c23)cc1 [Quinoxyfen],Cytotoxic EC20 (μM) YAS,[2],> 75 µM
same,Cytotoxic EC20 (μM) MDA-kb2,[1],10.1 µM
COC(=O)N(C(=O)N1CO[C@@]2(C(=O)OC)Cc3cc(Cl)ccc3C2=N1)c1ccc(OC(F)(F)F)cc1 [Indoxacarb],Androgen EC20 (μM) MDA-kb2,[3]; [5],Neg
same,Antiandrogen IC20 (μM) MDA-kb2,[4],Neg
same,Cytotoxic EC20 (μM) MDA-kb2,[1],11.3 µM
CCCSP(=O)(OCC)Oc1ccc(Br)cc1Cl (stereo not shown) [Profenofos],Cytotoxic EC20 (μM) MDA-kb2,[1],8.61 µM
C#CCOS(=O)OC1CCCCC1Oc1ccc(C(C)(C)C)cc1 (stereo not shown) [Propargite],Cytotoxic EC20 (μM) MDA-kb2,[1],0.487 µM
"ClC(Cl)=C(c1ccc(Cl)cc1)c1ccc(Cl)cc1 [p,p′-DDE, p,p′-1,1-bis-(4-chlorophenyl)-2,2-dichloroethene]",Cytotoxic EC20 (μM) MDA-kb2,[1],> 50 µM
CC(C)OC(=O)Nc1cccc(Cl)c1 [Chlorpropham],Cytotoxic EC20 (μM) YAS,[2],> 40 µM
same,Cytotoxic EC20 (μM) MDA-kb2,[1],> 50 µM
Cc1cc(C)nc(Nc2ccccc2)n1 [Pyrimethanil],Cytotoxic EC20 (μM) YAS,[2],167 µM
same,Cytotoxicity in the YAS assay (in words),[2],cytotoxic
same,Cytotoxic EC20 (μM) MDA-kb2,[1],> 125 µM
CCCN(CC)CC1COC2(CCC(C(C)(C)C)CC2)O1 (stereo not shown) [Spiroxamine],Cytotoxic EC20 (μM) MDA-kb2,[1],9.29 µM
COP(=S)(OC)SCn1nnc2ccccc2c1=O [Azinphos-methyl],Androgen EC20 (μM) MDA-kb2,[3]; [5],Neg
same,Cytotoxic EC20 (μM) YAS,[2],> 150 µM
same,Antiandrogenic activity in the MDA-kb2 assay (in words),[4]; MDA-kb2 / 'our assay',antiandrogenic; also recorded: in vitro AR antagonists
same,Cytotoxic EC20 (μM) MDA-kb2,[1],33.9 µM
Oc1ccccc1-c1ccccc1 [O-Phenylphenol],Cytotoxic EC20 (μM) MDA-kb2,[1],> 50 µM
Spinosad,Androgen EC20 (μM) MDA-kb2,[3]; [5],Neg
same,Antiandrogen IC20 (μM) MDA-kb2,[4],Neg
same,Cytotoxic EC20 (μM) MDA-kb2,[1],13.1 µM
Cc1cc(C2CC2)nc(Nc2ccccc2)n1 [Cyprodinil],Cytotoxic EC20 (μM) MDA-kb2,[1],> 50 µM
